Peptide text beside a SMILES is read from it.
System: TFEB
Assay: TFEB nuclear translocation by high-content microscopy in HeLa cells
Type: cell-based
Settings: 1 h full medium
Protocol: (A) Dose-response analysis of mTOR activity in HEK293T cells treated with glycyl-L-phenylalanine 2-naphththylamide (GPN) in full medium for 1 h. mTOR activity was monitored by inununoblotting analysis of S6K1 (T389) and ULK1 (S757) phosphorylation (phosphorylated S6K (T389) and ULK1 (S757) relative to total S6K and ULK1, respectively). (B) Analysis of mTOR activity (as in A) after GPN washout. HEK293T cells were treated with 100 μM GPN for 1 h followed by 1 h washout in full medium. Data, means±SEM (n=3), **p<0.01, ANOVA. (C) Analysis of mTOR activity (as in A) in HEK293T cells treated with increasing doses of silica in full medium for 1 h. (D) HEK293T cells were treated with lysosomal damaging agents (LLOMe, Leu-Leu-OMe) for 1 h in full medium and status of acidified organelles assessed by quantifying LysoTracker Red DND-99 puncta using automated high-content imaging and analysis (HC). […] Data, means±SEM, n≥3 independent experiments (500 primary objects counted per well; ≥5 wells/sample per each experiment), **p<0.01, ANOVA. […] Human peripheral blood monocyte derived macrophages were treated with 100 μM GPN in full medium or starved in EBSS for 1 h, and mTOR activity measured as in A. None-treated cells were as control (Ctrl). […] Data, means±SEM, n≥3 independent experiments (500 primary objects counted per well; ≥5 wells/sample per each experiment) **p<0.01, ANOVA. […]

Compound: NCC(=O)N[C@@H](Cc1ccccc1)C(=O)Nc1ccc2ccccc2c1 [GPN, glycyl-L-phenylalanine 2-naphththylamide] (HELM PEPTIDE1{G.F.[c1ccc2cc(N[*:1])ccc2c1]}$$$$V2.0)
- TFEB nuclear translocation: translocated to the nucleus from the cytoplasm

Reference: patent US20210069295A1, “GALECTINS CONTROL MTOR IN RESPONSE TO ENDOMEMBRANE DAMAGE AND PROVIDE A MECHANISM AND TARGET FOR THE TREATMENT OF AUTOPHAGY-RELATED DISEASES” (STC. UNM, priority 2017, published 2021)
